Laboratory results reported in patent US20240384268A1, “Oligonucleotides” (Hudson Institute of Medical Research, priority 2021, published 2024).

Molecular target: T1, TLR8 (Homo sapiens, UniProt Q9NR97)
T1 sequence (Q9NR97 27-1041): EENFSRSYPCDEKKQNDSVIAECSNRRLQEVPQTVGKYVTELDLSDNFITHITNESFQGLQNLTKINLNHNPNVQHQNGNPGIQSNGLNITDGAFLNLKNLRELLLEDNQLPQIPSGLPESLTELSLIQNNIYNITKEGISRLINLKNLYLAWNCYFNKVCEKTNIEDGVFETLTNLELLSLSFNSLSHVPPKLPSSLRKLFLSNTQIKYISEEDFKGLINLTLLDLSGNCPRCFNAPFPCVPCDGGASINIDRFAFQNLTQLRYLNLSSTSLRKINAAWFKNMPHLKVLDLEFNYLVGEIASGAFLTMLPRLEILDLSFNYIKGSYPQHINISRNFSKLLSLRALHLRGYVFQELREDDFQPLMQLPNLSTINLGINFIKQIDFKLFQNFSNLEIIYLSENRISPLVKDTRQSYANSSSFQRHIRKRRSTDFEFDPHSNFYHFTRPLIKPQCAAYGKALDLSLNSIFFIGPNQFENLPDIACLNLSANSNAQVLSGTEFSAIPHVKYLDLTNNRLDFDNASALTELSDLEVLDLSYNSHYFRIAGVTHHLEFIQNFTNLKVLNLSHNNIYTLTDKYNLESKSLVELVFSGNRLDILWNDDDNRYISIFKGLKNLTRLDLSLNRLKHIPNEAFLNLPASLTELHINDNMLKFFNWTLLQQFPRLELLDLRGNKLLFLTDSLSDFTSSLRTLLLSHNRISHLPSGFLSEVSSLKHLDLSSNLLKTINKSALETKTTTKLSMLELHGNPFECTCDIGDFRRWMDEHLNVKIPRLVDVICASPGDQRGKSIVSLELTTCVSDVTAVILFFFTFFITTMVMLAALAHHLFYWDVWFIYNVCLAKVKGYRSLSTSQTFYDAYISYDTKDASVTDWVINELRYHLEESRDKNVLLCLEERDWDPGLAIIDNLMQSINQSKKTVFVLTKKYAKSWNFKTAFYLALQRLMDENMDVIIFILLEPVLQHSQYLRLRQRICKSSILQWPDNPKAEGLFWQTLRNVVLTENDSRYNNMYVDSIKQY
Assay: HEK-TLR8 NF-κB-luciferase reporter, R848 or Motolimod stimulation (potentiation or inhibition)
Format: cell-based
Design: expressed in transfected cells; host or cells: 293XLhTLR8 (HEK293)
Settings: for TLR8 100 nM (averaged NF-κB-Luciferase level relative to R848 condition, fold increase): ASO 100 nM; for TLR8 100 nM (averaged NF-κB-Luciferase level relative to R848 condition, fold increase) / TLR8 500 nM (averaged NF-κB-Luciferase level relative to R848 condition, fold increase): relative to R848 only; for TLR8 500 nM (averaged NF-κB-Luciferase level relative to R848 condition, fold increase): ASO 500 nM

Sequence: AAAGGACTGAGGAAAG (antisense; LNA-modified, pattern not given here) [CAMSAP1-6273 LNA KL]
- TLR8 100 nM (averaged NF-κB-Luciferase level relative to R848 condition, fold increase): 0.882
- TLR8 500 nM (averaged NF-κB-Luciferase level relative to R848 condition, fold increase): 2.663

Sequence: AACACTTCGTGGGGTC (antisense; LNA-modified, pattern not given here) [HPRT LNA-666 V1]
- TLR8 100 nM (averaged NF-κB-Luciferase level relative to R848 condition, fold increase): 0.496
- TLR8 500 nM (averaged NF-κB-Luciferase level relative to R848 condition, fold increase): 0.882

Sequence: AACCCCTTTCACCATC (antisense; LNA-modified, pattern not given here) [MB21D1-689 LNA KL]
- TLR8 100 nM (averaged NF-κB-Luciferase level relative to R848 condition, fold increase): 1.871
- TLR8 500 nM (averaged NF-κB-Luciferase level relative to R848 condition, fold increase): 8.654

Sequence: AATCCAACAAAGTCTG (antisense; LNA-modified, pattern not given here) [HPRT LNA-692 KL]
- TLR8 100 nM (averaged NF-κB-Luciferase level relative to R848 condition, fold increase): 0.591
- TLR8 500 nM (averaged NF-κB-Luciferase level relative to R848 condition, fold increase): 1.900

Sequence: ACACTTCGTGGGGTCCTTTT (antisense; 2'-MOE modified, pattern not given here) [HPRT-663 MOE]
- TLR8 100 nM (MOE-modified ASO at 100 nM, averaged NF-κB-Luciferase relative to R848 condition (fold increase)): 4.778
- TLR8 500 nM (MOE-modified ASO at 500 nM, averaged NF-κB-Luciferase relative to R848 condition (fold increase)): 6.320

Sequence: ACCACGTCTGCTCTAA (antisense; LNA-modified, pattern not given here) [CAMSAP1-1635 LNA KL]
- TLR8 100 nM (averaged NF-κB-Luciferase level relative to R848 condition, fold increase): 0.933
- TLR8 500 nM (averaged NF-κB-Luciferase level relative to R848 condition, fold increase): 4.259

Sequence: ACGTTCAGTCCTGTCC (antisense; LNA-modified, pattern not given here) [HPRT LNA-294 V1]
- TLR8 100 nM (averaged NF-κB-Luciferase level relative to R848 condition, fold increase): 0.356
- TLR8 500 nM (averaged NF-κB-Luciferase level relative to R848 condition, fold increase): 0.493

Sequence: ACTTCGTGGGGTCCTT (antisense; LNA-modified, pattern not given here) [HPRT LNA-663 V1]
- TLR8 100 nM (averaged NF-κB-Luciferase level relative to R848 condition, fold increase): 0.820
- TLR8 500 nM (averaged NF-κB-Luciferase level relative to R848 condition, fold increase): 3.672

Sequence: AGATTTCAGAGCAGCT (antisense; LNA-modified, pattern not given here) [EGFR-4885 LNA KL]
- TLR8 100 nM (averaged NF-κB-Luciferase level relative to R848 condition, fold increase): 0.401
- TLR8 500 nM (averaged NF-κB-Luciferase level relative to R848 condition, fold increase): 0.770

Sequence: AGCTTCGAGGCCCCAG (antisense; LNA-modified, pattern not given here) [MB21D1-616 LNA V1]
- TLR8 100 nM (averaged NF-κB-Luciferase level relative to R848 condition, fold increase): 0.331
- TLR8 500 nM (averaged NF-κB-Luciferase level relative to R848 condition, fold increase): 0.865

Sequence: AGGACTCCAGATGTTT (antisense; LNA-modified, pattern not given here) [HPRT LNA pos cont]
- TLR8 100 nM (averaged NF-κB-Luciferase level relative to R848 condition, fold increase): 0.278
- TLR8 500 nM (averaged NF-κB-Luciferase level relative to R848 condition, fold increase): 1.034

Sequence: AGGCCCTTCGCACTTC (antisense; LNA-modified, pattern not given here) [EGFR-1225 LNA V1]
- TLR8 100 nM (averaged NF-κB-Luciferase level relative to R848 condition, fold increase): 0.507
- TLR8 500 nM (averaged NF-κB-Luciferase level relative to R848 condition, fold increase): 0.967

Sequence: AGGTCTTGGCTTCGTG (antisense; LNA-modified, pattern not given here) [MB21D1-524 LNA V1]
- TLR8 100 nM (averaged NF-κB-Luciferase level relative to R848 condition, fold increase): 0.596
- TLR8 500 nM (averaged NF-κB-Luciferase level relative to R848 condition, fold increase): 1.953

Sequence: AGTGTTGAGATACTCG (antisense; LNA-modified, pattern not given here) [EGFR-3652 LNA KL]
- TLR8 100 nM (averaged NF-κB-Luciferase level relative to R848 condition, fold increase): 0.427
- TLR8 500 nM (averaged NF-κB-Luciferase level relative to R848 condition, fold increase): 0.599

Sequence: ATCTGGCAGCCCATCA (antisense; LNA-modified, pattern not given here) [CTNN2B-2516 LNA V1]
- TLR8 100 nM (averaged NF-κB-Luciferase level relative to R848 condition, fold increase): 0.808
- TLR8 500 nM (averaged NF-κB-Luciferase level relative to R848 condition, fold increase): 2.628

Sequence: ATGGCCTCCCATCTCC (antisense; LNA-modified, pattern not given here) [HPRT LNA-330 V1]
- TLR8 100 nM (averaged NF-κB-Luciferase level relative to R848 condition, fold increase): 0.369
- TLR8 500 nM (averaged NF-κB-Luciferase level relative to R848 condition, fold increase): 1.356

Sequence: ATGTGATGGCCTCCCA (antisense; LNA-modified, pattern not given here) [HPRT LNA-335 V1]
- TLR8 100 nM (averaged NF-κB-Luciferase level relative to R848 condition, fold increase): 0.637
- TLR8 500 nM (averaged NF-κB-Luciferase level relative to R848 condition, fold increase): 1.840

Sequence: CACTTCGTGGGGTCCT (antisense; LNA-modified, pattern not given here) [HPRT LNA-664 V1]
- TLR8 100 nM (averaged NF-κB-Luciferase level relative to R848 condition, fold increase): 0.425
- TLR8 500 nM (averaged NF-κB-Luciferase level relative to R848 condition, fold increase): 1.446

Sequence: CATCCACCACGTCGTC (antisense; LNA-modified, pattern not given here) [EGFR-3266 LNA V1]
- TLR8 100 nM (averaged NF-κB-Luciferase level relative to R848 condition, fold increase): 0.778
- TLR8 500 nM (averaged NF-κB-Luciferase level relative to R848 condition, fold increase): 2.417

Sequence: CCAACACTTCGTGGGG (antisense; LNA-modified, pattern not given here) [HPRT LNA-668 V1]
- TLR8 100 nM (averaged NF-κB-Luciferase level relative to R848 condition, fold increase): 0.535
- TLR8 500 nM (averaged NF-κB-Luciferase level relative to R848 condition, fold increase): 0.835

Sequence: CCACATCCTGTGGCTC (antisense; LNA-modified, pattern not given here) [CAMSAP1-2906 LNA V1]
- TLR8 100 nM (averaged NF-κB-Luciferase level relative to R848 condition, fold increase): 0.291
- TLR8 500 nM (averaged NF-κB-Luciferase level relative to R848 condition, fold increase): 0.232

Sequence: CCACTTGGCAGACCAT (antisense; LNA-modified, pattern not given here) [CTNN2B-1575 LNA V1]
- TLR8 100 nM (averaged NF-κB-Luciferase level relative to R848 condition, fold increase): 0.684
- TLR8 500 nM (averaged NF-κB-Luciferase level relative to R848 condition, fold increase): 1.213

Sequence: CCAGCAGGTCAGCAAA (antisense; LNA-modified, pattern not given here) [HPRT LNA-388 KL]
- TLR8 100 nM (averaged NF-κB-Luciferase level relative to R848 condition, fold increase): 0.412
- TLR8 500 nM (averaged NF-κB-Luciferase level relative to R848 condition, fold increase): 1.499

Sequence: CCCACTTGGCAGACCA (antisense; LNA-modified, pattern not given here) [CTNN2B-1576 LNA V1]
- TLR8 100 nM (averaged NF-κB-Luciferase level relative to R848 condition, fold increase): 0.899
- TLR8 500 nM (averaged NF-κB-Luciferase level relative to R848 condition, fold increase): 1.865

Sequence: CCTCCCATCTCCTTCA (antisense; LNA-modified, pattern not given here) [HPRT LNA-326 V1]
- TLR8 100 nM (averaged NF-κB-Luciferase level relative to R848 condition, fold increase): 1.469
- TLR8 500 nM (averaged NF-κB-Luciferase level relative to R848 condition, fold increase): 6.759

Sequence: CCTTGCACGTGGCTTC (antisense; LNA-modified, pattern not given here) [EGFR-1013 LNA V1]
- TLR8 100 nM (averaged NF-κB-Luciferase level relative to R848 condition, fold increase): 1.315
- TLR8 500 nM (averaged NF-κB-Luciferase level relative to R848 condition, fold increase): 2.414

Sequence: CGCTTTTCTGTCTGGT (antisense; LNA-modified, pattern not given here) [CTNN2B-311 LNA KL]
- TLR8 100 nM (averaged NF-κB-Luciferase level relative to R848 condition, fold increase): 0.920
- TLR8 500 nM (averaged NF-κB-Luciferase level relative to R848 condition, fold increase): 2.896

Sequence: CGGCCTCGGAAGCTCT (antisense; LNA-modified, pattern not given here) [MB21D1-168 LNA V1]
- TLR8 100 nM (averaged NF-κB-Luciferase level relative to R848 condition, fold increase): 0.402
- TLR8 500 nM (averaged NF-κB-Luciferase level relative to R848 condition, fold increase): 0.219

Sequence: CGTATTATAGCCGATT (antisense; LNA-modified, pattern not given here) [NC1 LNA PS 3-10-3]
- TLR8 100 nM (averaged NF-κB-Luciferase level relative to R848 condition, fold increase): 0.396
- TLR8 500 nM (averaged NF-κB-Luciferase level relative to R848 condition, fold increase): 0.716

Sequence: CTGCAGCTTCCTTGTC (antisense; LNA-modified, pattern not given here) [CTNN2B-2136 LNA V1]
- TLR8 100 nM (averaged NF-κB-Luciferase level relative to R848 condition, fold increase): 0.478
- TLR8 500 nM (averaged NF-κB-Luciferase level relative to R848 condition, fold increase): 0.936

Sequence: CTTCGTGGGGTCCTTT (antisense; LNA-modified, pattern not given here) [HPRT LNA-662 V1]
- TLR8 100 nM (averaged NF-κB-Luciferase level relative to R848 condition, fold increase): 1.097
- TLR8 500 nM (averaged NF-κB-Luciferase level relative to R848 condition, fold increase): 4.366

Sequence: CTTGAAGCATCGTATC (antisense; LNA-modified, pattern not given here) [CTNN2B-3648 LNA KL]
- TLR8 100 nM (averaged NF-κB-Luciferase level relative to R848 condition, fold increase): 0.960
- TLR8 500 nM (averaged NF-κB-Luciferase level relative to R848 condition, fold increase): 3.889

Sequence: CTTGGCTTCGTGGAGC (antisense; LNA-modified, pattern not given here) [MB21D1-520 LNA V1]
- TLR8 100 nM (averaged NF-κB-Luciferase level relative to R848 condition, fold increase): 0.458
- TLR8 500 nM (averaged NF-κB-Luciferase level relative to R848 condition, fold increase): 0.594
